Where two headings read alike, the source gives them in different places.
Key:
C57BL/6 mice = experiment: Corneal fluorescein staining (NEI grading), dry eye model (CEC + SQ scopolamine); type: in vivo, mouse
Protocol: Six to 10 week old C57BL/6 mice (Taconic Farms, German-town, NY) were used. The protocol was approved by the Schepens Eye Research Institute Animal Care and Use Committee, and all animals were treated according to the ARVO Statement for the Use of Animals in Ophthalmic and Vision Research. […] The controlled-environment chamber: a new mouse model of dry eye. […] Louis, Mo.) was injected SQ in the dorsal skin of mice at 9 am, 12 pm, and 3 pm; the overnight dose at 6 pm was increased to 0.75 mg/0.3 ml. The mice were placed in the CEC where they were continuously exposed to a relative humidity (RH) of <30%, airflow of 15 litres/minute and a constant temperature of 21-23° C. as described previously (Barabino et al, 2005). Dry eye was induced for variable lengths of time, ranging from 2-10 days. […] Formulations tested included a) 0.2% alpha-linolenic acid (ALA, n-3); b) 0.2% linoleic acid (LA, n-6); and c) 0.1% ALA: 0.1% LA (1:1 ratio of n3:n6, total amount of fatty acid being same as in individual fatty acid formulations). […] Forty eight hours after dry eye induction, each eye was randomized to receive one of the formulations, or the vehicle. A 1 ul eye drop was applied topically to the eye of unanaesthetized mouse once daily, from 48 hours to day 4 (total 3 doses) or to day 9 (total 8 doses) depending on the time point studied. The untreated group received no eye drops. Ocular signs of dry eye were measured 24 hours after the last dose (day 5 or day 10) following which mice were euthanized for cellular and molecular studies. […] Eyes were flushed by sterile PBS to remove excess fluorescein at 3 minutes, and examined with a slit lamp biomicroscope in cobalt blue light. Punctate staining was recorded in a masked fashion with a standardized (National Eye Institute) grading system of 0 to 3 for each of the five areas in which the corneal surface was divided. […] Kruskal Wallis and Mann Whitney tests (unpaired data set), and Wilcoxin test (paired data set) were used for statistical analysis.

TNF-α = experiment: Real time PCR of cytokine transcripts in dry eye cornea and conjunctiva; type: in vivo, mouse
Description: (§1) Corneal and conjunctival expression of pro-inflammatory cytokines IL-1α and TNF-α Th1 cytokines (IL-2 and IFN-γ) and Th2 cytokines (IL-4, IL-6 and IL-10), relative to the normal eyes, was studied using quantitative real time PCR. Total RNA was isolated from the whole mount corneal and conjunctival tissues (two pooled corneas per group and six pooled conjunctivae per group). A combined method of total RNA isolation was employed, using Trizol (Invitrogen, CA, catalog #15596-026) for tissue homogenization on ice, precipitation of RNA in the aqueous phase in 70% ethanol followed by subsequent extraction and purification using RNeasy Microkit (Qiagen, CA, catalogue # 74004). Isolated RNA was stored at −80° C. until future use.
(§2) The first strand cDNA was synthesized from 300 ng of total RNA with random hexamers using SuperScript™ III Reverse Transcriptase (Invitrogen, CA, Catalogue #18080) according to the manufacturer's protocol. Real-time PCR was performed with FAM-MGB dye labeled pre-designed primers (Applied Biosystems, CA) for IL-1-α (catalogue # 4329586), TNF-α (Assay ID Mm99999068_ml) and GAPDH (Assay ID Mm99999915_g1), IL-2 (Assay ID […]), IL-4 (Assay ID Mm00445259), IL-6 (Assay ID Mm00446190_ml), IL-10 (Mm00439616_ml), IFN-γ (Assay ID Mm00801778 ml) according to manufacturer's recommendations. 1 ul of cDNA was loaded in each well and assays were performed in duplicates. A nontemplate control was included in all the experiments to evaluate DNA contamination of the isolated RNA and the reagents used. The results of quantitative real-time PCR were analyzed by the comparative threshold cycle (CT) method and normalized by GAPDH as an internal control. The relative expression of cytokines at different times points was compared using one way ANOVA, post hoc test LSD with p<0.05 deemed significant.
(§3) Six to 10 week old C57BL/6 mice (Taconic Farms, German-town, NY) were used. The protocol was approved by the Schepens Eye Research Institute Animal Care and Use Committee, and all animals were treated according to the ARVO Statement for the Use of Animals in Ophthalmic and Vision Research. Dry eye was induced by placement of mice in a CEC as described above, modified with subcutaneous (“SQ”) administration of scopolamine to lead to maximal ocular dryness (Barabino S, Shen L, Chen L, Rashid S, Rolandao M, Dana M R. The controlled-environment chamber: a new mouse model of dry eye. Invest Opthalmol Vis Sci. 2005; 46: 2766-71). Briefly, 0.5 mg/0.2 ml of scopolamine hydrobromide (Sigma-Aldrich, St. Louis, Mo.) was injected SQ in the dorsal skin of mice at 9 am, 12 pm, and 3 pm; the overnight dose at 6 pm was increased to 0.75 mg/0.3 ml. The mice were placed in the CEC where they were continuously exposed to a relative humidity (RH) of <30%, airflow of 15 litres/minute and a constant temperature of 21-23° C. as described previously (Barabino et al, 2005). Dry eye was induced for variable lengths of time, ranging from 2-10 days. Age-matched mice were used as normal controls (RH>80%, no airflow and temperature 21-23° C., no scopolamine administration).
(§4) Forty eight hours after dry eye induction, each eye was randomized to receive one of the formulations, or the vehicle. A 1 ul eye drop was applied topically to the eye of unanaesthetized mouse once daily, from 48 hours to day 4 (total 3 doses) or to day 9 (total 8 doses) depending on the time point studied. The untreated group received no eye drops. Ocular signs of dry eye were measured 24 hours after the last dose (day 5 or day 10) following which mice were euthanized for cellular and molecular studies.

IL-1α = experiment: as above; type: in vivo, mouse
Description: as §1, §2, §3, §4

Balb/c mice [1] = experiment: Cotton thread test of tear production, dry eye model (CEC + scopolamine patch); type: in vivo, mouse; conditions: Scop patch alone for 6 days, Day 3 and Day 6
Description: (§5) Normal healthy 6 to 10 weeks old female Balb/c mice (Taconic Farms, German-town, NY) can be induced to have dry eye by continuously exposing them to dry environment in a controlled environmental chamber (CEC), described below. Mice in CEC were continuously exposed throughout the duration of the experiments, to low relative humidity of less than 30% (mean and standard deviation 19%±4%), high airflow (15 liters/minute) and constant temperature (21-23 Celsius). Mice in normal cages were exposed to relative humidity over 70% (mean and SD 78%±5%), no airflow and same temperature. In addition, the mice placed in CEC were also treated with scopolamine, active agent that causes pharmacological inhibition of tear secretion. The combination of CEC and scopolamine produces severe dry eye. […]
Tear production was measured with cotton thread test, impregnated with phenol red (Zone-Quick, Lacrimedics, Eastsound, Wash.). […] The tear distance in mm is read under a microscope (Zeiss S4, West Germany) using the scale of an hemacytometer. Tear secretion was measured in three groups of mice (FIG. 1). […]
(§6) Dry eye was induced by combined environmental and pharmacological effect (placing the mice in CEC and applying scopolamine patch for 6 days). […] Signs of dry eye were assessed at the end of Day 6, twelve hours after the last dose. […] […]

Balb/c mice [2] = experiment: Corneal fluorescein staining (NEI grading), dry eye model (CEC + scopolamine patch); type: in vivo, mouse; conditions: scopolamine alone, Day 3 and Day 6
Description: as §5, with “secretion.” for “secretion. The combination of CEC and scopolamine produces severe dry eye.”
The cornea was examined with a slit lamp biomicroscope using cobalt blue light 3 minutes after the fluorescein instillation. Punctuate staining was recorded in a masked fashion using a standardized National Eye Institute (NEI) grading system of 0-3 for each of the five areas in which the corneal surface has been divided (FIG. 2). […]
as §6

## CCC=CCC=CCC=CCCCCCCCC(=O)O [ALA, 9, 12, 15 octadecatrienoic acid]
C57BL/6 mice; day 5, once daily drop from 48 hours
  decrease in corneal fluorescein staining scores compared to the vehicle: 45%
C57BL/6 mice; day 10
  decrease in corneal fluorescein staining scores compared to the vehicle: 62%
  decrease in corneal fluorescein staining scores compared to untreated control eyes: 71%
CD11b+ cells; center of cornea, day 10
  decrease in CD11b+ cell number compared to the untreated group: 42%
  decrease in CD11b+ cell number compared to the vehicle: 37%
  number of CD11b+ cells compared to untreated, vehicle, LA and combined groups: significantly decreased
CD11b+ cells; center of whole mount cornea, confocal images
  number of CD11b+ cells relative to normal (non dry eye induced) cornea: comparable to the normal
CD11b+ cells; periphery of cornea, day 10
  CD11b+ cell number compared to untreated eyes: significant decrease
  CD11b+ cell number compared to vehicle: no significant difference
  decrease in CD11b+ cell number compared to the untreated group: 37%
  decrease in CD11b+ cell number compared to the vehicle: 21%
TNF-α; conjunctiva, day 10
  conjunctival expression of TNF-α compared to untreated eyes: significantly decreased
TNF-α; cornea, day 5
  corneal TNF-α expression compared to untreated and vehicle-treated corneas: significant decrease
TNF-α; cornea, day 10
  corneal TNF-α expression: decreased trend
IL-1α; conjunctiva, day 10
  conjunctival IL-α expression: downward trend
IL-1α; cornea, day 10
  corneal IL-1α expression compared to untreated corneas: significant decrease

## CN1[C@@H]2C[C@@H](OC(=O)[C@H](CO)c3ccccc3)C[C@H]1[C@@H]1O[C@@H]12 [Scop patch, scopolamine]
Balb/c mice [1]
  tear secretion compared to the baseline: markedly decreased
Balb/c mice [2]
  corneal fluorescein staining compared to the controls: significant increase

## CCCCC/C=C\C/C=C\CCCCCCCC(=O)O [LA, 9,12-octadecandienoic acid]
C57BL/6 mice; day 5
  corneal fluorescein staining scores compared to vehicle-treated eyes: no significant difference
C57BL/6 mice; day 10
  corneal fluorescein staining scores compared to vehicle and untreated eyes: no difference
TNF-α; cornea and conjunctiva
  TNF-α expression, between untreated, vehicle and treated eyes: No significant difference
IL-1α; cornea and conjunctiva
  IL-1α expression, between untreated, vehicle and treated eyes: No significant difference
